Source: patent US5023254A, “Aminoalkylindoles, their production, and pharmaceutical preparations based thereon” (Schering Aktiengesellschaft, priority 1988, dated 1991)
Where “and” joins values, the source holds several entries; their conditions need not be identical. Equal entries are not always repeated.

Columns and labels:
estrogen receptor = molecular target: T1, estrogen receptor (Bos taurus, UniProt P49884); assay: relative binding affinity (RBA) for the estrogen receptor from calf uterus, displacement of 3H-17β estradiol; conditions: for RBA (relative binding affinity for the estrogen receptor): calf uterus, relative to 17 beta estradiol = 100; for affinity for the estrogen receptor (in words): in comparison with estradiol
T1 construct: estrogen receptor from calf uterus; from tissue; host or cells: calf uterus
T1 sequence (P49884 1-596): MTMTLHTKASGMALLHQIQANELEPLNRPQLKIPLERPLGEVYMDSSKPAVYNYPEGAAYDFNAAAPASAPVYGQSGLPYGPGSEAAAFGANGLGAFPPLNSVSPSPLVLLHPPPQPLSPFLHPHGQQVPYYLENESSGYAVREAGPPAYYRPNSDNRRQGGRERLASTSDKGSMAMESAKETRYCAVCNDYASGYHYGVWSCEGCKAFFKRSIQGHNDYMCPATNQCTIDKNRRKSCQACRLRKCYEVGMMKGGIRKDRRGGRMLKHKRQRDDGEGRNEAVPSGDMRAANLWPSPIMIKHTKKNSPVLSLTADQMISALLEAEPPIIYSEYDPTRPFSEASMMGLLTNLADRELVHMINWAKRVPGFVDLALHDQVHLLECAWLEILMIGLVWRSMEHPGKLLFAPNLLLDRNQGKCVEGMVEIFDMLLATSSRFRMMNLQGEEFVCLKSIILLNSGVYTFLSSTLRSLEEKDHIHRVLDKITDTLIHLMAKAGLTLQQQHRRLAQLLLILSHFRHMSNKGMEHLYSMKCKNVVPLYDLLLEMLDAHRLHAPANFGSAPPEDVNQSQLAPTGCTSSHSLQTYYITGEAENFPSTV
Description: *Relative binding affinities for the estrogen receptor from calf uterus,

[1] = system: human MCF-7 breast cancer cells; assay: growth of hormone-dependent human MCF-7 breast cancer cells, cell count; format: cell-based; conditions: Homo sapiens, MCF7, read-out: Cell Count (% T/C)
Description: The test protocol for the research is fully described in Eur.J. Cancer Clin. Oncol.

mouse uterus [2] = assay: Uterotrophic test on infantile mouse (estrogen activity); format: in vivo; parameters: unit not given here
Description: (§1) This test is fully described in Cancer Treatment Reviews 1984, 11, 147, and J.Med.Chem., 1984, 27, 1439.

mouse uterus [3] = assay: Antiuterotrophic test on infantile mouse (anti-estrogen activity); format: in vivo; parameters: Antiuterotrophic Test Rel. uterus wgt / Antiuterotrophic Test Action (rel. uterus wgt): unit not given here; conditions: for inhibition in vivo at 0.125 mg: Mus musculus; for inhibition in vivo at 0.005 mg: dose 5 ug (per animal); for inhibition in vivo at 0.025 mg: dose 25 ug (per animal)
Description: as §1

[4] = read-out: Antiuterotrophic Test Inhib. (%)
[5] = infantile mouse, read-out: Antiuterotrophic Test Inhib. (%)

Cc1c(-c2ccc(O)cc2)n(CCCCCCN2CCCCC2)c2ccc(O)cc12 [Compound 8, 5-Hydroxy-2-(4-hydroxyphenyl)-3-methyl-1-[6-piperidino-hexyl]-indole]
RBA (relative binding affinity for the estrogen receptor) (estrogen receptor): 23 | affinity for the estrogen receptor (in words) (estrogen receptor): greatest affinity | activity at 10 µM ([1]; MCF-7, 1 × 10^-5 M): 38% | activity at 1 µM ([1]; MCF-7, 1 × 10^-6 M): 44% | activity at 0.1 µM ([1]; MCF-7, 1 × 10^-7 M): 48%

CNCCCCCCn1c(-c2ccc(O)cc2)c(C)c2cc(O)ccc21 [Compound 3, 5-Hydroxy-2-(4-hydroxyphenyl)-3-methyl-1-[6-methylamino-hexyl]-indole]
RBA (relative binding affinity for the estrogen receptor) (estrogen receptor): 27 | affinity for the estrogen receptor (in words) (estrogen receptor): greatest affinity | Uterotrophic Test Rel. uterus wgt (mouse uterus [2]; dose 1 ug): 14.2 ± 3.1 | Uterotrophic Test Rel. uterus wgt (mouse uterus [2]; dose 5 ug): 22.8 ± 8.6 | Uterotrophic Test Rel. uterus wgt (mouse uterus [2]; dose 125 ug): 34.0 ± 6.3 | inhibition in vivo at 0.125 mg (mouse uterus [3]; [4]): 59% | Antiuterotrophic Test Rel. uterus wgt (mouse uterus [3]; infantile mouse, dose 5 ug): 38.1 ± 8.2 | inhibition in vivo at 0.005 mg (mouse uterus [3]; [5]): 49% | Antiuterotrophic Test Rel. uterus wgt (mouse uterus [3]; infantile mouse, dose 25 ug): 41.0 ± 8.5 | inhibition in vivo at 0.025 mg (mouse uterus [3]; [5]): 43% | Antiuterotrophic Test Rel. uterus wgt (mouse uterus [3]; infantile mouse, dose 125 ug): 33.8 ± 2.4

Oc1ccc(-c2cc3cc(O)ccc3n2CCCCCCN2CCCC2)cc1 [Compound 5, 5-Hydroxy-2-(4-hydroxyphenyl)-1-[6-pyrrolidino-hexyl]-indole]
RBA (relative binding affinity for the estrogen receptor) (estrogen receptor): 2.3

CCN(CC)CCCCCCn1c(-c2ccc(O)cc2)c(C)c2cc(O)ccc21 [Compound 11]
RBA (relative binding affinity for the estrogen receptor) (estrogen receptor): 14 | Uterotrophic Test Action (rel. uterus wgt) (mouse uterus [2]; dose 5 ug/animal): 24.8 ± 11.7 | Uterotrophic Test Action (rel. uterus wgt) (mouse uterus [2]; dose 25 ug/animal): 14.7 ± 4.3 | Uterotrophic Test Action (rel. uterus wgt) (mouse uterus [2]; dose 625 ug/animal): 36.4 ± 17.6 | inhibition in vivo at 0.125 mg (mouse uterus [3]; [4]): 50% | inhibition in vivo at 0.005 mg (mouse uterus [3]; [5]): 11% | Antiuterotrophic Test Action (rel. uterus wgt) (mouse uterus [3]; infantile mouse, dose 5 ug/animal): 51.3 ± 4.9 | inhibition in vivo at 0.025 mg (mouse uterus [3]; [5]): 8% | Antiuterotrophic Test Action (rel. uterus wgt) (mouse uterus [3]; infantile mouse, dose 25 ug/animal): 52.1 ± 8.9 | Antiuterotrophic Test Action (rel. uterus wgt) (mouse uterus [3]; infantile mouse, dose 625 ug/animal): 43.7 ± 7.4 | inhibition in vivo at 0.625 mg (mouse uterus [3]; infantile mouse, dose 625 ug/animal, read-out: Antiuterotrophic Test Inhib. (%)): 37%

Cc1c(-c2ccc(O)cc2)n(CCCCCCN(C)C)c2ccc(O)cc12 [Compound 4, 5-Hydroxy-2-(4-hydroxyphenyl)-3-methyl-1-[6-dimethyamino-hexyl]-indole]
RBA (relative binding affinity for the estrogen receptor) (estrogen receptor): 12

Oc1ccc(-c2cc3cc(O)ccc3n2CCCCCCN2CCCCC2)cc1 [Compound 7, 5-Hydroxy-2-(4-hydroxyphenyl)-1-[6-piperidino-hexyl]-indole]
RBA (relative binding affinity for the estrogen receptor) (estrogen receptor): 1.3 | affinity for the estrogen receptor (in words) (estrogen receptor): least affinity

C[C@]12CC[C@@H]3c4ccc(O)cc4CC[C@H]3[C@@H]1CCC2=O [Estrone, reference compound]
Uterotrophic Test Rel. uterus wgt (mouse uterus [2]; estrone 0.4 ug): 45.8 ± 6.2 and 59.8 ± 20.0 and 53.4 ± 3.6 and 43.0 ± 7.2 and 54.2 ± 12.1 | Antiuterotrophic Test Rel. uterus wgt (mouse uterus [3]; infantile mouse, estrone alone 0.4 ug): 54.2 ± 12.1

Cc1c(-c2ccc(O)cc2)n(CCCCCCN)c2ccc(O)cc12 [Compound 2, 5-Hydroxy-2-(4-hydroxyphenyl)-3-methyl-1-[6-amino-hexyl]-indole]
affinity for the estrogen receptor (in words) (estrogen receptor): greatest affinity | Uterotrophic Test Rel. uterus wgt (mouse uterus [2]; dose 1 ug): 10.9 ± 4.7 | Uterotrophic Test Rel. uterus wgt (mouse uterus [2]; dose 5 ug): 12.0 ± 2.2 | Uterotrophic Test Rel. uterus wgt (mouse uterus [2]; dose 25 ug): 12.4 ± 2.7 | Uterotrophic Test Rel. uterus wgt (mouse uterus [2]; dose 125 ug): 16.9 ± 2.7 | inhibition in vivo at 0.125 mg (mouse uterus [3]; [4]): 99% | Antiuterotrophic Test Rel. uterus wgt (mouse uterus [3]; infantile mouse, dose 5 ug): 30.0 ± 9.1 | inhibition in vivo at 0.005 mg (mouse uterus [3]; [5]): 68% | Antiuterotrophic Test Rel. uterus wgt (mouse uterus [3]; infantile mouse, dose 25 ug): 15.1 ± 1.2 | inhibition in vivo at 0.025 mg (mouse uterus [3]; [5]): 102% | Antiuterotrophic Test Rel. uterus wgt (mouse uterus [3]; infantile mouse, dose 125 ug): 16.2 ± 2.7

Cc1c(-c2ccc(O)cc2)n(CCCCCCCCN2CCCC2)c2ccc(O)cc12 [Compound 9, 5-Hydroxy-2-(4-hydroxyphenyl)-3-methyl-1-[8-pyrrolidino-octyl]-indole]
RBA (relative binding affinity for the estrogen receptor) (estrogen receptor): 7.6
